In US9131690B2, “Macrocyclic picolinamides as fungicides” (Dow AgroSciences LLC, priority 2012, dated 2015):
Where two headings read alike, the source gives them in different places.

What was measured:
[1] = test system: Puccinia triticina. Synonym: Puccinia recondite f. sp. tritici; experiment: Fungicidal activity: Wheat Brown Rust (PUCCRT), wheat plants variety Yuma; type: in vivo; design: key to PUCCRT 3DC Disease Control: A: 50-100; B: More than 0-Less than 50; C: Not Tested; D: No activity noticed in this bioassay; conditions: for pest or weed control at 100 ppm: Puccinia triticina; for PUCCRT 3DC Disease Control: 100 ppm
Description: Evaluation of Fungicidal Activity: Wheat Brown Rust (Puccinia triticina. Synonym: Puccinia recondite f. sp. tritici; Bayer Code PUCCRT) Wheat plants (variety Yuma) were grown from seed in a greenhouse in 50% mineral soil/50% soil-less Metro mix until the first leaf was fully emerged, with 7-10 seedlings per pot. These plants were inoculated with an aqueous spore suspension of Puccinia recondite f. sp. tritici either prior to or after fungicide treatments. After inoculation the plants were kept in 100% relative humidity overnight to permit spores to germinate and infect the leaf. The plants were then transferred to a greenhouse set at 24 C for disease to develop.

[2] = test system: Mycosphaerella graminicola; Anamorph: Septoria tritici; experiment: Fungicidal activity: Leaf Blotch of Wheat (SEPTTR), wheat plants variety Yuma; type: in vivo; conditions: Zymoseptoria tritici
Description: Evaluation of Fungicidal Activity: Leaf Blotch of Wheat (Mycosphaerella graminicola; Anamorph: Septoria tritici; Bayer Code […]) Wheat plants (variety Yuma) were grown from seed in a greenhouse in 50% mineral soil/50% soil-less Metro mix until the first leaf was fully emerged, with 7-10 seedlings per pot. These plants were inoculated with an aqueous spore suspension of Septoria tritici either prior to or after fungicide treatments. After inoculation the plants were kept in 100% relative humidity (one day in a dark dew chamber followed by two to three days in a lighted dew chamber) to permit spores to germinate and infect the leaf. The plants were then transferred to a greenhouse at 20° C. for disease to develop.

[3] = 24 h, 1 Day Protectant, read-out: PUCCRT 1DP Disease Control
[4] = 72 h, 3 Day Curative, read-out: PUCCRT 3DC Disease Control
[5] = 24 h, 1 Day Protectant, read-out: SEPTTR 1DP Disease Control
[6] = 72 h, 3 Day Curative, read-out: SEPTTR 3DC Disease Control

Row | SMILES | pest or weed control at 100 ppm [1, 3] [%] | pest or weed control at 100 ppm [1, 4] [%] | pest or weed control at 100 ppm [2, 5] [%] | pest or weed control at 100 ppm [2, 6] [%] | melting point [°C] | PUCCRT 3DC Disease Control ([1]; 3 Day Curative)
1 | COc1ccnc(C(=O)N[C@H]2COC(=O)[C@H](Cc3ccc(F)cc3)[C@@H](OC(=O)C(C)C)[C@H](C)OC2=O)c1O [Compound 1, (3S,6S,7R,8R)-8-(4-fluorobenzyl)-3-(3-hydroxy-4-methoxypicolinamido)-6-methyl-4,9-dioxo-1,5-dioxonan-7-yl isobutyrate] | 50 to 100 | 0 to 50 | 50 to 100 | 0 to 50 | 208 to 210 | 
2 | COc1ccnc(C(=O)N[C@H]2COC(=O)[C@H](Cc3cccnc3)[C@@H](OC(=O)C(C)C)[C@H](C)OC2=O)c1O [Compound 2] | 50 to 100 | 50 to 100 | 50 to 100 | 50 to 100 | 148 to 155 | 
3 | COc1ccnc(C(=O)N[C@H]2COC(=O)[C@H](Cc3ccccn3)[C@@H](OC(=O)C(C)C)[C@H](C)OC2=O)c1O [Compound 3] | 50 to 100 | 50 to 100 | 50 to 100 | 50 to 100 | 92 to 95 | 
4 | COc1ccnc(C(=O)N[C@H]2COC(=O)[C@H](Cc3ccc(C)cc3)[C@@H](OC(=O)C(C)C)[C@H](C)OC2=O)c1O [Compound 4] | 50 to 100 | 0 to 50 | 50 to 100 | 0 to 50 | 175 to 179 | 
5 | COc1ccnc(C(=O)N[C@H]2COC(=O)[C@H](Cc3ccncc3)[C@@H](OC(=O)C(C)C)[C@H](C)OC2=O)c1O [Compound 5] | 50 to 100 | 50 to 100 | 50 to 100 | 50 to 100 | 151 to 156 | 
6 | COc1ccnc(C(=O)N[C@H]2COC(=O)[C@H](Cc3ccc(C(F)(F)F)cc3)[C@@H](OC(=O)C(C)C)[C@H](C)OC2=O)c1O [Compound 6] | 50 to 100 |  | 50 to 100 | 0 to 50 | 222 to 226 | D
7 | COc1ccnc(C(=O)N[C@H]2COC(=O)[C@H](Cc3ccc(Cl)nc3)[C@@H](OC(=O)C(C)C)[C@H](C)OC2=O)c1O [Compound 7] | 50 to 100 | 50 to 100 | 0 to 50 | 0 to 50 | 148 to 152 | 
8 | COc1ccc(C[C@H]2C(=O)OC[C@H](NC(=O)c3nccc(OC)c3O)C(=O)O[C@@H](C)[C@@H]2OC(=O)C(C)C)cc1 [Compound 8] | 50 to 100 | 50 to 100 | 50 to 100 | 0 to 50 |  | 
9 | COc1ccnc(C(=O)N[C@H]2COC(=O)[C@H](Cc3ccc(F)cc3)[C@@H](OC(=O)C(C)C)[C@H](C)OC2=O)c1OCOC(=O)C(C)C [Compound 20] | 50 to 100 | 50 to 100 | 50 to 100 | 50 to 100 |  | 
10 | COc1ccnc(C(=O)N[C@H]2COC(=O)[C@H](Cc3ccc(F)cc3F)[C@@H](OC(=O)C(C)C)[C@H](C)OC2=O)c1OCOC(=O)C(C)C [Compound 21] | 50 to 100 | 50 to 100 | 50 to 100 | 50 to 100 |  | 
11 | COCC[C@H]1C(=O)OC[C@H](NC(=O)c2nccc(OC)c2OCOC(=O)C(C)C)C(=O)O[C@@H](C)[C@@H]1OC(=O)C(C)C [Compound 28] | 50 to 100 | 50 to 100 | 50 to 100 | 50 to 100 |  | 
12 | COc1ccnc(C(=O)N[C@H]2COC(=O)[C@H](CCOCc3ccccc3)[C@@H](OC(=O)C(C)C)[C@H](C)OC2=O)c1OCOC(=O)C(C)C [Compound 29] | 50 to 100 | 50 to 100 | 50 to 100 | 0 to 50 |  | 
13 | COc1ccnc(C(=O)N[C@H]2COC(=O)[C@H](CC(=O)OC(C)(C)C)[C@@H](OC(=O)C(C)C)[C@H](C)OC2=O)c1OCOC(=O)C(C)C [Compound 30] | 50 to 100 | 50 to 100 | 50 to 100 | 50 to 100 |  | 
14 | COc1ccnc(C(=O)N[C@H]2COC(=O)[C@H](CCc3cccnc3)[C@@H](OC(=O)C(C)C)[C@H](C)OC2=O)c1OCOC(=O)C(C)C [Compound 31] | 50 to 100 | 0 to 50 | 0 to 50 | 0 to 50 |  | 
15 | COc1ccnc(C(=O)N[C@H]2COC(=O)[C@H](CCc3ccccc3)[C@@H](OC(=O)C(C)C)[C@H](C)OC2=O)c1OCOC(=O)C(C)C [Compound 32] | 50 to 100 | 50 to 100 | 50 to 100 | 50 to 100 |  | 
16 | CCCCCCC[C@H]1C(=O)OC[C@H](NC(=O)c2nccc(OC)c2OCOC(=O)C(C)C)C(=O)O[C@@H](C)[C@@H]1OC(=O)C(C)C [Compound 33] | 50 to 100 | 50 to 100 | 50 to 100 | 50 to 100 |  | 
17 | CCC[C@H]1C(=O)OC[C@H](NC(=O)c2nccc(OC)c2OCOC(=O)C(C)C)C(=O)O[C@@H](C)[C@@H]1OC(=O)C(C)C [Compound 34] | 50 to 100 | 50 to 100 | 50 to 100 | 50 to 100 |  | 
18 | COc1ccnc(C(=O)N[C@H]2COC(=O)[C@H](CCOC(=O)C(C)C)[C@@H](OC(=O)C(C)C)[C@H](C)OC2=O)c1O [Compound 36] | 50 to 100 |  | 50 to 100 | 0 to 50 |  | D
19 | COc1ccnc(C(=O)N[C@H]2COC(=O)[C@H](CCOC(=O)C(C)(C)C)[C@@H](OC(=O)C(C)C)[C@H](C)OC2=O)c1O [Compound 37] | 50 to 100 | 0 to 50 | 50 to 100 | 0 to 50 |  | 
20 | COc1ccnc(C(=O)N[C@H]2COC(=O)[C@H](CCOC(=O)c3cc(OC)c(OC)c(OC)c3)[C@@H](OC(=O)C(C)C)[C@H](C)OC2=O)c1O [Compound 41] | 50 to 100 |  | 0 to 50 | 0 to 50 |  | D
21 | COCC[C@H]1C(=O)OC[C@H](NC(=O)c2nccc(OC)c2O)C(=O)O[C@@H](C)[C@@H]1OC(=O)C(C)C [Compound 44, (3S,6S,7R,8R)-3-(3-hydroxy-4-methoxypicolinamido)-8-(2-methoxyethyl)-6-methyl-4,9-dioxo-1,5-dioxonan-7-yl isobutyrate] | 50 to 100 | 50 to 100 | 50 to 100 | 50 to 100 |  | 
22 | COc1ccnc(C(=O)N[C@H]2COC(=O)[C@H](CCC3CCCCC3)[C@@H](OC(=O)C(C)C)[C@H](C)OC2=O)c1O [Compound 62] | 50 to 100 | 0 to 50 | 50 to 100 | 0 to 50 |  | 
